Measured values from patent US20100022656A1, “OPTICALLY ACTIVE PHENYLETHANOL AMINES AND PREPARING METHOD THEREOF” (SHENYANG PHARMACEUTICAL UNIVERSITY, priority 2006, published 2010).

biological target: T1, β2-receptor (Cavia porcellus, UniProt Q8K4Z4); test: Antagonistic effect on isolated trachea strip constriction induced by histamine (study of effect on β2-receptor); format: cell-based; settings: isolated guinea pig (Hartley) trachea strips contracted with histamine to 50% of maximum; tested compounds formulated as 10^−6 M solution; 37° C.
T1 construct: Trachea was removed and cut from thyroid cartilage to trachea crotch; from tissue; host or cells: guinea pig (Hartley) isolated trachea strips
Text: Study of the Effect of Compounds of the Invention on β2-Receptor
Sample: All tested compounds were formulated into solution of 10^−6 M.
The antagonistic effects of the compounds of the present invention on the trachea constriction induced by histamine.
Guinea pigs were sacrificed and cut through the skin and subcutaneous tissue on ventral side of neck. Trachea was removed and cut from thyroid cartilage to trachea crotch, then placed into an ice cooled oxygenated Kebs-Hensleits solution. The connective tissues around the trachea were cut off. The trachea was held by a nipper on one end and cut into trachea strips (2 cm×3 mm) in helix. The samples were then put into a bath containing 20 ml of Kebs-Hensleits solution. The lower end of the trachea strips was fastened to a vent hook and the upper end was connected to a strain gauge transducer, thus the tension change was measured by the recorder. The bath was controlled at 37° C. and oxygen gas was continuously supplied. The preload of the samples was 2 g. The samples were equilibrated in the nutrient solution for 1 hour and the solution was refreshed every 20 min.
When the tension of the samples reached a stable value, various concentrations (1×10^−10˜3×10^−4 mol·L^−1) of histamine were added to the bath. A dose-effect curve was established to determine the concentration of histamine when 50% of the maximum contraction was reached. After refreshing the solution and balancing the samples for 60 min, an amount of histamine was added to the bath. When the tension of trachea strips reached 50% of the maximum contraction, the tested compounds were added to bath, and the antagonistic effect (represented as relaxing rate) of the compounds on the isolated trachea constriction induced by histamine was calculated as below:
Relaxing rate (%)=[(Contraction intensity after histamine addition−Contraction intensity after tested compounds addition)/[…]]×100%

T1 sequence (Q8K4Z4 whole entry): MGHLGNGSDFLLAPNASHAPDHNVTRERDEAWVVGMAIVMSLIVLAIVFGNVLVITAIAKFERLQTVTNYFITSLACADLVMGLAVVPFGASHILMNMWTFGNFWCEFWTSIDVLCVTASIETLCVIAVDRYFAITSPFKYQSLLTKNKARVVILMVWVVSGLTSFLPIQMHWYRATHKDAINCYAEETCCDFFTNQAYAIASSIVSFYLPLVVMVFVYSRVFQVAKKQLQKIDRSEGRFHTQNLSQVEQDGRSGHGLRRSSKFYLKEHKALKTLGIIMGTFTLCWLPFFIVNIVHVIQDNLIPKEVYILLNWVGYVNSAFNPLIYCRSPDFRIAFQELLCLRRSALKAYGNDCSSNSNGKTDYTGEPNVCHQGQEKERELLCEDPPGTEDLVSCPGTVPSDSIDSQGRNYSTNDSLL

SMILES	Relaxing rate (%)
CC(C)(C)NC(CO)c1cc(Cl)c(N)c(C#N)c1.Cl (stereo not drawn) [drawing 8]	112.1%
CC(C)(C)NC(CO)c1cc(Cl)c(N)c(C#N)c1.Cl (stereo not drawn) [drawing 7]	78.1%
CC(C)(C)NC(CO)c1ccc(N)c(C(F)(F)F)c1.Cl (stereo not drawn) [drawing 13]	55.3%

Now from value to molecule:

Relaxing rate (%)	SMILES
100.0%	CC(C)(C)NC(CO)c1cc(Cl)c(N)c(C#N)c1.Cl (stereo not drawn) [drawing 6]
70.2%	CC(C)(C)NC(CO)c1ccc(N)c(C(F)(F)F)c1.Cl (stereo not drawn) [drawing 12]
88.3%	CC(C)(C)NC(CO)c1ccc(N)c(C(F)(F)F)c1.Cl (stereo not drawn) [drawing 14]
